Holding throughout (format): functional, cell-based
One assay relates to A549. Nature of the assay: Cytotoxicity against human A549 cells after 2 days by sulforhodamine B assay. Particulars: A549, 48 h.
Assay [1] deals with KB. The assay can be described thus: Cytotoxicity against multidrug-resistant human KB-VCR cells after 2 days by sulforhodamine B assay. Particulars: 48 h.
Assay [2] deals with KB. Nature of the assay: Cytotoxicity against human KB cells after 2 days by sulforhodamine B assay. The following applies: 48 h.

Values after ≈ are worked out from the molar mass of the structure shown.

`COc1cccc(/C=C/C(C)=O)c1O`: the figures for the IC50 with A549, in the assay on KB [1] and with KB [2] were 2.5 µg/mL (≈ 13 µM), 2 µg/mL (≈ 10.4 µM) and 3.8 µg/mL (≈ 19.8 µM), respectively.
The matching figures for `CCOc1ccc(/C=C/C(C)=O)cc1OC`: over 10 µg/mL, 8 µg/mL (≈ 36.3 µM) and 5.5 µg/mL (≈ 25 µM).
For `CCOc1cccc(/C=C/C(C)=O)c1O`, the IC50 came to 2.3 µg/mL (≈ 11.2 µM) with A549, 1.9 µg/mL (≈ 9.21 µM) with KB [1] and 2 µg/mL (≈ 9.7 µM) in the assay on KB [2].
The like results for `C/C=C/COc1ccc(/C=C/C(C)=O)cc1OC` were, in that order, 6.8 µg/mL (≈ 27.6 µM), 3.4 µg/mL (≈ 13.8 µM) and 4.8 µg/mL (≈ 19.5 µM).
In the case of `COc1ccc(/C=C/C(C)=O)cc1O`, the IC50 was over 10 µg/mL with A549, 8.2 µg/mL (≈ 42.7 µM) in the assay with KB [1] and 10 µg/mL (≈ 52 µM) with KB [2].
The matching figures for `CC(=O)/C=C/c1cccc(F)c1O`: 3 µg/mL (≈ 16.7 µM), 3 µg/mL (≈ 16.7 µM) and 2.1 µg/mL (≈ 11.7 µM).
The matching figures for `COc1cc(/C=C/C(C)=O)ccc1OC/C=C(\C)CCC=C(C)C`: 3.4 µg/mL (≈ 10.4 µM), 3.3 µg/mL (≈ 10 µM) and 2.2 µg/mL (≈ 6.7 µM).
Consider `C/C=C/c1ccc(OC/C=C(\C)CC/C=C(\C)CCC=C(C)C)c(OC)c1`, for which the IC50 in the assay on KB [1] and in the assay on KB [2] was over 10 µg/mL throughout.
Consider `COc1cc(/C=C/C(C)=O)ccc1O` [DEHYDROZINGERONE], for which the IC50 in the assay on A549, with KB [1] and in the assay with KB [2] was over 10 µg/mL in each case.
`C/C=C/c1ccc(OCCC)c(OC)c1`: the IC50 in the assay with KB [1] and with KB [2] was over 10 µg/mL in each case.
For `COc1cc(/C=C/C(C)=O)ccc1OCC=C(C)C`, the figures for the IC50 in the assay on A549, in the assay on KB [1] and in the assay with KB [2] were 3.8 µg/mL (≈ 14.6 µM), 3.5 µg/mL (≈ 13.4 µM) and 5.7 µg/mL (≈ 21.9 µM), respectively.
The matching figures for `COc1cccc2c1C(=O)c1c(O)c3c(c(O)c1C2=O)C[C@@](O)(C(=O)CO)C[C@@H]3O[C@H]1C[C@H](N)[C@H](O)[C@H](C)O1` [DOXORUBICIN]: 0.1 µg/mL (≈ 0.184 µM), 2.7 µg/mL (≈ 4.97 µM) and 0.1 µg/mL (≈ 0.184 µM).
For the molecule `COc1cc(/C=C/C(C)=O)ccc1OCCC(C)C`, the IC50 in the assay on A549 amounted to 7.2 µg/mL (≈ 27.4 µM); with KB [1], 3.2 µg/mL (≈ 12.2 µM); with KB [2], 3.6 µg/mL (≈ 13.7 µM).
In the case of `C=CCOc1ccc(/C=C/C)cc1OC`, the IC50 in the assay on KB [1] and in the assay with KB [2] was over 10 µg/mL each time.
For the molecule `C/C=C/c1ccc(OCCC(C)C)c(OC)c1`, the IC50 in the assay with KB [1] and in the assay with KB [2] was over 10 µg/mL in each case.
`CCOc1cc(/C=C/C(C)=O)ccc1O`: the IC50 in the assay with A549 came to 8.5 µg/mL (≈ 41.2 µM); with KB [1] it was 7.8 µg/mL (≈ 37.8 µM); with KB [2], 7.7 µg/mL (≈ 37.3 µM).
The matching figures for `C=CCOc1ccc(/C=C/C(C)=O)cc1OC`: 5.8 µg/mL (≈ 25 µM), 5 µg/mL (≈ 21.5 µM) and 6.8 µg/mL (≈ 29.3 µM).
Turning to `C/C=C/c1ccc(OC)c(OC)c1` [METHYLISOEUGENOL], the IC50 in the assay on KB [1] and in the assay on KB [2] was over 10 µg/mL each time.
Take `C/C=C/COc1ccc(/C=C/C)cc1OC`: the IC50 in the assay with KB [1] and in the assay on KB [2] was over 10 µg/mL in each case.
On to `COc1cc(/C=C/C(=O)CC(=O)/C=C/c2ccc(O)c(OC)c2)ccc1O` [CURCUMIN], for which the IC50 was found to be 5.2 µg/mL (≈ 14.1 µM) in the assay with A549, 3.1 µg/mL (≈ 8.42 µM) in the assay with KB [1] and 5.5 µg/mL (≈ 14.9 µM) with KB [2].
The like results for `COc1cccc(/C=C/C(=O)c2ccccc2)c1O` were, in that order, 0.6 µg/mL (≈ 2.36 µM), 1.3 µg/mL (≈ 5.11 µM) and 2.4 µg/mL (≈ 9.44 µM).
The matching figures for `COc1ccc(/C=C/C(C)=O)cc1OC`: 8 µg/mL (≈ 38.8 µM), 7.8 µg/mL (≈ 37.8 µM) and 8.6 µg/mL (≈ 41.7 µM).
The like results for `COc1ccc(/C=C/C(C)=O)cc1F` were, in that order, 5.5 µg/mL (≈ 28.3 µM), 5 µg/mL (≈ 25.7 µM) and 4.3 µg/mL (≈ 22.1 µM).
In the case of `COc1ccc(/C=C/C(=O)c2ccccc2)cc1O`, the half-maximal inhibitory concentration (IC50) was 3.5 µg/mL (≈ 13.8 µM) in the assay on A549, 1 µg/mL (≈ 3.93 µM) in the assay on KB [1] and 1 µg/mL (≈ 3.93 µM) in the assay on KB [2].
Consider `C/C=C/c1ccc(OCC=C(C)C)c(OC)c1`, for which the IC50 in the assay on KB [1] and with KB [2] was over 10 µg/mL throughout.
Regarding `CCCOc1ccc(/C=C/C(C)=O)cc1OC`, the IC50 in the assay with A549 came out at 5.8 µg/mL (≈ 24.8 µM); in the assay with KB [1], 4.2 µg/mL (≈ 17.9 µM); in the assay on KB [2], 6.5 µg/mL (≈ 27.7 µM).
`COc1cc(/C=C/C(C)=O)ccc1OC/C=C(\C)CC/C=C(\C)CCC=C(C)C`: the values for the IC50 with A549, in the assay on KB [1] and with KB [2] were 7.4 µg/mL (≈ 18.7 µM), 7.4 µg/mL (≈ 18.7 µM) and 6.5 µg/mL (≈ 16.4 µM), respectively.
Take `COc1cc(/C=C/C(=O)c2ccccc2)ccc1O`: the IC50 is 2.3 µg/mL (≈ 9.04 µM) with A549, 1.9 µg/mL (≈ 7.47 µM) in the assay on KB [1] and 3.5 µg/mL (≈ 13.8 µM) with KB [2].
The matching figures for `COc1ccc(/C=C/C(C)=O)c(O)c1`: 3.5 µg/mL (≈ 18.2 µM), 4 µg/mL (≈ 20.8 µM) and 3.8 µg/mL (≈ 19.8 µM).
The like results for `COc1ccc(/C=C/C(=O)c2ccccc2)c(O)c1` were, in that order, 3.8 µg/mL (≈ 14.9 µM), 2 µg/mL (≈ 7.87 µM) and 2 µg/mL (≈ 7.87 µM).

For the origin of these results see ChEMBL document CHEMBL1158080, “Dehydrozingerone, chalcone, and isoeugenol analogues as in vitro anticancer agents” (J Nat Prod, 2006).
